Source: the NIST ThermoML archive (doi:10.1021/je030151s)
Numbers after ± are expanded uncertainties.

What was measured:
[1] = 101.3 kPa, Liquid; for viscosity: Capillary tube (Ostwald / Ubbelohde) method
[2] = xn = mol fraction of the nth substance listed; settings: 101.3 kPa, Liquid, x2 = 0; for viscosity: Capillary tube (Ostwald / Ubbelohde) method

Row | SMILES | mass density ([1]; 293.15 K) [kg/m3] | speed of sound ([1]; 293.15 K) [m/s] | viscosity ([1]; 293.15 K) [mPa·s] | mass density ([1]; 303.15 K) [kg/m3] | speed of sound ([1]; 303.15 K) [m/s] | viscosity ([1]; 303.15 K) [mPa·s] | mass density ([1]; 313.15 K) [kg/m3] | speed of sound ([1]; 313.15 K) [m/s] | viscosity ([1]; 313.15 K) [mPa·s] | viscosity ([2]; 293.15 K) [mPa·s] | mass density ([2]; 293.15 K) [kg/m3] | speed of sound ([2]; 293.15 K) [m/s] | viscosity ([2]; 303.15 K) [mPa·s] | mass density ([2]; 303.15 K) [kg/m3] | speed of sound ([2]; 303.15 K) [m/s] | viscosity ([2]; 313.15 K) [mPa·s] | mass density ([2]; 313.15 K) [kg/m3] | speed of sound ([2]; 313.15 K) [m/s]
1 | Cc1ccccc1C [1,2-dimethylbenzene] | 880.2 ± 1.2 | 1365.6 ± 3.5 | 0.8092 ± 0.0098 | 871.8 ± 1.2 | 1339 ± 3.5 | 0.7172 ± 0.0089 | 863.2 ± 1.3 | 1297.5 ± 3.4 | 0.6292 ± 0.0079 | – | – | – | – | – | – | – | – | –
2 | Cc1ccccc1C [1,2-dimethylbenzene] + CCC(=O)CC | – | – | – | – | – | – | – | – | – | 0.8092 ± 0.0098 | 880.2 ± 1.2 | 1365.6 ± 3.5 | 0.7172 ± 0.0089 | 871.8 ± 1.2 | 1339 ± 3.5 | 0.6292 ± 0.0079 | 863.2 ± 1.3 | 1297.5 ± 3.4
3 | CCc1ccccc1 [ethylbenzene] | 867.4 ± 1.2 | 1333.4 ± 3.5 | 0.6793 ± 0.0085 | 856.5 ± 1.2 | 1295.7 ± 3.4 | 0.6006 ± 0.0077 | 848.9 ± 1.3 | 1259.8 ± 3.4 | 0.5355 ± 0.007 | – | – | – | – | – | – | – | – | –
4 | CCc1ccccc1 [ethylbenzene] + CCC(=O)CC | – | – | – | – | – | – | – | – | – | 0.6793 ± 0.0085 | 867.4 ± 1.2 | 1333.4 ± 3.5 | 0.6006 ± 0.0077 | 856.5 ± 1.2 | 1295.7 ± 3.4 | 0.5355 ± 0.007 | 848.9 ± 1.3 | 1259.8 ± 3.4
5 | CCC(=O)CC [pentan-3-one] | 814.4 ± 1.1 | 1230.7 ± 3.3 | 0.4714 ± 0.0064 | 804.7 ± 1.1 | 1197.8 ± 3.3 | 0.4231 ± 0.0059 | 794.9 ± 1.2 | 1159.1 ± 3.3 | 0.3799 ± 0.0055 | – | – | – | – | – | – | – | – | –
